Several values for one entry are separate records, joined by “and”; a condition that tells them apart may be missing. Identical values can stand only once. Like-named read-outs stand apart in the source and are kept apart here.
Experiments:
[1] = system: Tg4510 mice; experiment: Neuronal counts in CA1 and CA3 regions of hippocampus (stereology) in Tg4510 mice; format: in vivo, mouse; conditions: Tg4510 mice at 5.5 months
Description: (§1) Mice were euthanized by cervical dislocation at 5. 5 months followed by decapitation. Brains were immediately removed and divided down the midline into two hemispheres. The right hemisphere was placed into 20 mL of 4% paraformaldehyde (prepared fresh on the day of sacrifice) and stored overnight at 4° C. The following day, the brains were transferred to a tube containing 20 mL TBS (pH 7.4, 20 mM TRIS, 100 mM NaCl) and then stored at 4° C. until processing. Right hemispheres were embedded in paraffin, sectioned at 5 microns, and mounted on positively charged glass slides. The slides were dried overnight in a 60° C. oven and stored at room temperature until stained. The left hemispheres were frozen (within 2 minutes) on dry ice.
Nissl stained slides were scanned and digitized using the Aperio ScanScope (Aperio Technologies, Inc., Vista, Calif.). Images of the entire brain section were captured at high resolution and stored as files within Spectrum (Aperio software). To process images, a region of 4,000×4,000 pixels including the entire hippocampus was captured using the extract tool and saved as a JPEG file for importing into Metamorph (Molecular Devices, Sunnyvale, Calif.) for quantification of cell loss within the CA1 and CA3 regions of the hippocampus. A modified version of the single section dissector method (Moller et al. 1990) was utilized to quantify cell loss because of its suitability for thin, paraffin-embedded tissue sections. To obtain relative numbers of cells, every fifth section was collected as the paraffin-embedded brains were cut sagitally between the Bregma and approximately 0.75 mm laterally. Three regions were drawn and counted per section using Metamorph software. The same regions were used for every image and 5 sections were counted per animal, 5 slides apart. Statistics were performed using ANOVA followed by Dunnett's post-hoc test.
Previous studies had shown that Tg4510 mice lost about 60% of their neurons in the CA1 region of the hippocampus at 5.5 months (Santacruz et al. 2005). […]

[2] = Plasma, brain and liver levels of epothilone D after bolus IV in triple transgenic mice; format: in vivo, mouse; conditions: bolus IV 5 mpk; for concentration at […]: .33 hr
Text: (§2) To calculate an accurate brain half-life for a long half-life compound, measurements need to be taken for several half lives after a single dose.

[3] = Plasma, brain and liver levels after oral gavage in C57BL/6 mice; format: in vivo, mouse
Text: Below, we first report the experimental detail for preparation and isolation of Compound III, and then the biological, in vivo data is described.

[4] = Brain half-life of epothilone D in rats; format: in vivo; conditions: 1 mg/kg, Rat, IV, 1 mpk
Text: as §2

[5] = system: neurofibrillary tangles; experiment: Gallyas silver staining for neurofibrillary tangles in Tg4510 mice; format: in vivo, mouse; conditions: cortex and hippocampus, vs vehicle
Description: as §1
The Gallyas staining method was used to detect silver-positive neurofibrillary tangles and dystrophic neurites. Paraffin-embedded thin sections (5 microns) mounted on glass slides were deparaffinized and rehydrated via serial incubation in xylene (two times for 10 minutes each), 100% ethanol (two times for 10 minutes each), 95% MeOH/5% H2O2 (30 minutes), 95% ethanol (two times for 5 minutes each), 80% ethanol (two times for 5 minutes each), 50% ethanol (two times for 5 minutes each), and water (two times for 5 minutes each). […]

[6] = system: Tg4510 mice; experiment: Morris water maze (MWM) in Tg4510 mice; conditions: vs vehicle; for MWM acquisition: locating the hidden platform: tested at 4.5 months; for MWM probe trial % pathlength in target quadrant / MWM probe trial number of platform crossings: probe 18 h after 5 days of training
Description: A 10× stock solution was made in 100% ethanol, and diluted just before dosing. Mice were dosed in 3 cohorts and data were combined to give a final N of 12, 9, and 15 for the vehicle, 1 mpk, and 10 mpk groups, respectively. Mice were dosed in a chemical fume hood.
Tg4510 mice were used in this study. […] At 9 weeks (+/−15 days) of age, mice were acclimated to handling with a single mock injection of phosphate buffered saline, performed within a chemical fume hood. The mice were then housed in cages kept within the chemical fume hood for 48 hours. Following the 48-hour period, the mice were transferred to clean cages and brought to a behavioral suite for testing.
Mice were again tested in the MWM after the eighth dose (19 weeks of age+/−15 days) for six days. After behavioral testing, dosing resumed until the animals were 5.5 months of age at the time of harvest.
Mice were tested in Morris water maze (MWM) on two occasions, once prior to dosing, and once two months after dosing began. The second round of water maze testing was performed in another testing room. Mice were acclimated to the experimental room for 2-3 days prior to testing. The mice were placed in a water maze of 1.5 m diameter, with a 16 cm diameter platform placed 0.5-1.0 cm under the surface of the water. The water was made opaque with non-toxic white paint and the water temperature was regulated between 22-25° C.
The mice were given 4 trials per day of up to 90 seconds each with a 10 second rest period on the platform after each trial. […] The testing room rooms each had large external cues to allow the mice to orient as they learned the location of the platform. Mice were placed under a heat lamp to prevent hypothermia after each trial. The interval between trials ranged from 25 to 45 minutes. The mice were tracked using HVS Image Advanced Tracker VP200 software (Buckingham, UK) and the total distance traveled until reaching of the platform was determined.
Statistical analysis for acquisition path length from the five trials involved a repeated measures analysis of variance. […] If the analysis indicated a significant effect of treatment, or a treatment-by-trial interaction, differences between the 1 mpk and 10 mpk groups were compared to the vehicle group using Dunnett's test. The probe pathlengths in each quadrant, and number of platform crossings in each quadrant, were analyzed using Dunnett's test. In all cases, 1 mpk and 10 mpk groups were compared to the vehicle group. All calculations were done in SAS, version 9.1, under the Windows XP Professional operating system.

[7] = Brain half-life of epothilone D in mice; format: in vivo, mouse; conditions: for half-life: mouse, brain
Text: as §2

[8] = triple transgenic (Oddo et al. 2003), mouse, brain, 5 mg/kg, read-out: Brain conc
[9] = triple transgenic (Oddo et al. 2003), mouse, plasma, 5 mg/kg, read-out: Plasma conc
[10] = mouse, brain, 10 mg/kg, C57BL/6 mice, oral gavage 10 mpk, read-out: Brain conc
[11] = mouse, brain, 35 mg/kg, C57BL/6 mice, oral gavage 35 mpk, read-out: Brain conc
[12] = mouse, plasma, 10 mg/kg, C57BL/6 mice, oral gavage 10 mpk, read-out: Plasma conc
[13] = mouse, plasma, 35 mg/kg, C57BL/6 mice, oral gavage 35 mpk, read-out: Plasma conc

C/C1=C/C[C@@H](/C(C)=C/c2csc(C)n2)OC(=O)C[C@H](O)C(C)(C)C(=O)[C@H](C)[C@@H](O)[C@@H](C)CCC1 [Epothilone D, epothilone D]
CA3 total cell count ([1]; 1 mpk IP weekly, vs vehicle): significant differences between the 1 mpk and non-transgenic mice compared to vehicle treated mice
CA1 neuronal count ([1]; 1 mpk IP weekly, vs vehicle, p<0.01): substantially more CA1 neurons than vehicle-treated animals
CA1 neuronal count ([1]; 10 mpk IP weekly): intermediate between the vehicle-treated mice and the mice treated with 1 mpk
retention in brain tissue after a single dose [2]: at least 168 h
Plasma conc ([2]; 96 hr): <LLQ (0.6 nM)
Plasma conc ([2]; 168 hr): <LLQ (0.6 nM)
concentration at 24 h ([2]; mouse, liver, 5 mg/kg, below LLQ, read-out: liver levels): < 49 nM
concentration at 0.05 h [2, 8]: 1130 nM
concentration at 0.17 h [2, 8]: 595 nM
concentration at 1 h [2, 8]: 422 nM
concentration at 3 h [2, 8]: 468 nM
concentration at 6 h [2, 8]: 141 nM
concentration at 16 h [2, 8]: 210 nM
concentration at 24 h [2, 8]: 82.7 nM
concentration at 96 h ([2]; triple transgenic (Oddo et al. 2003), mouse, brain, 5 mg/kg, 96 hr, read-out: Brain conc): 25.2 nM
concentration at 168 h ([2]; triple transgenic (Oddo et al. 2003), mouse, brain, 5 mg/kg, 168 hr, read-out: Brain conc): 16.3 nM
concentration at […] [2, 8]: 529 nM
concentration at 0.05 h [2, 9]: 25100 nM
concentration at 0.17 h [2, 9]: 2000 nM
concentration at 1 h [2, 9]: 325 nM
concentration at 3 h [2, 9]: 70 nM
concentration at 6 h [2, 9]: 43 nM
concentration at 16 h [2, 9]: 0.8 nM
concentration at 24 h [2, 9]: 0.9 nM
concentration at […] [2, 9]: 549 nM
Plasma conc ([3]; C57BL/6 mice, oral gavage 10 mpk, 48 hr): (0.1 nM)
Plasma conc ([3]; C57BL/6 mice, oral gavage 10 mpk, 96 hr): (0.1 nM)
Plasma conc ([3]; C57BL/6 mice, oral gavage 35 mpk, 24 hr): (0.5 nM)
concentration at 1 h [3, 10]: 10.6 nM
concentration at 3 h [3, 10]: 7 nM
concentration at 4 h [3, 10]: 9.9 nM
concentration at 8 h [3, 10]: 6.4 nM
concentration at 13 h [3, 10]: 6.3 nM
concentration at 24 h ([3]; mouse, brain, 10 mg/kg, C57BL/6 mice, oral gavage 10 mpk, 24 hr, read-out: Brain conc): 9.1 nM
concentration at 48 h ([3]; mouse, brain, 10 mg/kg, C57BL/6 mice, oral gavage 10 mpk, 48 hr, read-out: Brain conc): 5.4 nM
concentration at 96 h ([3]; mouse, brain, 10 mg/kg, C57BL/6 mice, oral gavage 10 mpk, 96 hr, read-out: Brain conc): 3 nM
concentration at 1 hr [3, 11]: 61.3 nM
concentration at 5 hr [3, 11]: 76.9 nM
concentration at 24 hr ([3]; mouse, brain, 35 mg/kg, C57BL/6 mice, oral gavage 35 mpk, 24 hr, read-out: Brain conc): 118 nM
concentration at 1 h [3, 12]: 15.1 nM
concentration at 3 h [3, 12]: 3.9 nM
concentration at 4 h [3, 12]: 2.5 nM
concentration at 8 h [3, 12]: 1.4 nM
concentration at 13 h [3, 12]: 0.1 nM
concentration at 24 h ([3]; mouse, plasma, 10 mg/kg, C57BL/6 mice, oral gavage 10 mpk, 24 hr, read-out: Plasma conc): 0.2 nM
concentration at 1 hr [3, 13]: 52.7 nM
concentration at 5 hr [3, 13]: 3.6 nM
time brain levels were maintained ([3]; oral dosing 10 and 35 mpk (also IV, Table 2)): more than 24 h
half-life [4]: 31 h
Gallyas silver staining: neurofibrillary tangles ([5]; 1 mpk IP weekly): much lower levels of neurofibrillary tangles than did vehicle-treated mice
Gallyas silver staining: neurofibrillary tangles ([5]; 10 mpk IP weekly): trend toward improvement
MWM acquisition: locating the hidden platform ([6]; 1 mpk IP once weekly, p<0.01): able to locate the hidden platform in the MWM more quickly
MWM probe trial % pathlength in target quadrant ([6]; 1 mpk IP weekly for 2 months): statistically significant differences in both measures as compared with the vehicle group
MWM probe trial number of platform crossings ([6]; 1 mpk IP weekly for 2 months): statistically significant differences in both measures as compared with the vehicle group
MWM acquisition: locating the hidden platform ([6]; 10 mpk IP once weekly): trend toward improvement
MWM probe trial % pathlength in target quadrant ([6]; 10 mpk IP weekly for 2 months): significantly greater performance compared to the vehicle group
MWM probe trial number of platform crossings ([6]; 10 mpk IP weekly for 2 months): not when using the number of platform crossings measure
Half life (brain) ([7]; Mouse, IP, 10 mpk, 10 mg/kg): 37 h and 45 h and 46 h
half-life ([7]; intravenous, oral, intraperitoneal, mice, multiple routes of administration and dosages, read-out: brain half life, average (converted)): 46 h
half-life ([7]; ip, 1 mg/kg, Mouse, IP, 1 mpk, read-out: Half life (brain) (converted)): 44 h
half-life ([7]; ip, 10 mg/kg, Mouse, IP, 10 mpk, read-out: Half life (brain) (converted)): 41 h
half-life ([7]; iv, 5 mg/kg, Mouse, IV, 5 mpk, read-out: Half life (brain) (converted)): 61 h
half-life ([7]; po, 10 mg/kg, Mouse, Oral, 10 mpk, read-out: Half life (brain) (converted)): 46 h
